Results taken from PMC5267425, “Identification of small molecule modulators of HIV-1 Tat and Rev protein accumulation” (Retrovirology, 2017).

Test system: cellular gene expression in HeLa rtTA HIV∆Mls cells

Structure (SMILES): Cc1cc(NCc2cccnc2)n2ncc(-c3ccc(Cl)cc3)c2n1 [Compound 791, 3-(4-chlorophenyl)-5-methyl-N-(3-pyridinylmethyl)pyrazolo[1,5-a]pyrimidin-7-amine]
- SETMAR expression fold change: 0.745
- SFPQ expression fold change: 0.604
- SFRS13A expression fold change: 1.164
- SH2D4A expression fold change: 1.164
- SH3BGR Mean fold change: 1.680
- SHPK expression fold change: 0.869
- SIAH1 Mean fold change: 1.613
- SIAH2 Mean fold change: 1.494
- SIKE1 expression fold change: 1.279
- SKA2 expression fold change: 0.700
- SLC1A5 Mean fold change: 2.013
- SLC6A9 Mean fold change: 1.846
- SLC6A15 Mean fold change: 1.859
- SLC9A3 Mean fold change: 1.796
- SLC10A3 expression fold change: 0.873
- SLC16A1 expression fold change: 1.148
- SLC22A15 Mean fold change: 2.322
- SLC25A23 expression fold change: 0.855
- SLC26A11 expression fold change: 1.295
- SLC29A1 expression fold change: 0.814
- SLC35B3 expression fold change: 1.282
- SLC38A6 expression fold change: 1.215
- SLC39A6 expression fold change: 1.389
- SMARCA1 expression fold change: 0.805
- SMARCA5 expression fold change: 0.811
- SMARCC1 expression fold change: 0.845
- SMC2 expression fold change: 0.736
- SMC4 expression fold change: 0.769
- SMEK2 expression fold change: 1.332
- SMS expression fold change: 0.802
- SMTN expression fold change: 0.528
- SNAPC5 Mean fold change: 1.498
- SNX7 expression fold change: 0.747
- SNX10 Mean fold change: 2.399
- SOD1 expression fold change: 0.780
- SOX12 expression fold change: 0.979
- SPCS1 expression fold change: 1.045
- SPR expression fold change: 0.726
- SPRED2 Mean fold change: 2.080
- SPRYD4 expression fold change: 0.835
- SPTAN1 expression fold change: 0.613
- SQSTM1 expression fold change: 1.336
- SRPK1 expression fold change: 1.142
- SS18L1 expression fold change: 1.184
- SSR4 expression fold change: 1.121
- ST5 expression fold change: 0.715
- ST6GALNAC4 expression fold change: 1.270
- ST7L expression fold change: 1.363
- STAG3L4 Mean fold change: 1.432
- STAMBP expression fold change: 1.360
- STARD4 expression fold change: 0.603
- STK24 expression fold change: 1.344
- STK36 expression fold change: 1.268
- STK38 expression fold change: 0.829
- STK40 expression fold change: 1.375
- STMN1 expression fold change: 0.737
- STX4 expression fold change: 1.358
- SUN1 expression fold change: 0.880
- SUPT3H expression fold change: 1.089
- SUPT16H expression fold change: 1.113
- SWAP70 expression fold change: 0.801
- SYNPO expression fold change: 0.615
- TAB1 expression fold change: 1.071
- TADA2B expression fold change: 1.205
- TAF1C expression fold change: 1.085
- TAF3 expression fold change: 1.132
- TAF4B expression fold change: 0.875
- TAGLN2 expression fold change: 0.573
- TATDN1 Mean fold change: 1.544
- TBC1D23 expression fold change: 0.831
- TBC1D25 expression fold change: 0.892
- TBCCD1 expression fold change: 1.231
- TBCD expression fold change: 0.769
- TBL1X expression fold change: 1.190
- TBX1 expression fold change: 0.707
- TCEA1 Mean fold change: 2.377
- TCTA expression fold change: 0.691
- TEX2 expression fold change: 1.153
- TEX261 expression fold change: 0.826
- TFAP2A expression fold change: 0.742
- TGDS expression fold change: 1.239
- TGFA Mean fold change: 2.015
- THAP2 Mean fold change: 1.505
- TIGD2 expression fold change: 1.326
- TIGD6 Mean fold change: 1.617
- TIMELESS expression fold change: 1.079
- TIMM17B expression fold change: 1.193
- TIMP4 Mean fold change: 2.098
- TIPRL expression fold change: 1.158
- TLE3 expression fold change: 0.824
- TM4SF1 expression fold change: 0.658
- TM4SF19 Mean fold change: 2.453
- TM9SF4 expression fold change: 1.144
- TMED9 expression fold change: 0.713
- TMEM33 expression fold change: 1.367
- TMEM51 expression fold change: 1.103
- TMEM55A Mean fold change: 1.593
- TMEM68 expression fold change: 1.389
- TMEM69 expression fold change: 0.879
- TMEM120B expression fold change: 1.358
- TMEM126B expression fold change: 1.318
- TMEM128 Mean fold change: 1.475
- TMEM133 expression fold change: 0.678
- TMEM134 expression fold change: 1.333
- TMEM136 Mean fold change: 1.653
- TMEM138 expression fold change: 1.174
- TMEM167B expression fold change: 1.381
- TMEM184B expression fold change: 0.777
- TMSB10 expression fold change: 0.763
- TNKS2 expression fold change: 1.115
- TNS3 expression fold change: 0.625
- TOM1 expression fold change: 1.142
- TOP1 Mean fold change: 1.433
- TOP2B expression fold change: 0.838
- TOR3A Mean fold change: 2.169
- TPD52 expression fold change: 0.814
- TPK1 Mean fold change: 1.463
- TRAPPC6B Mean fold change: 1.516
- TRIB3 Mean fold change: 9.286
- TRIM5 expression fold change: 0.541
- TRIM8 expression fold change: 1.137
- TRIM11 expression fold change: 1.129
- TRIM38 expression fold change: 1.268
- TRIP12 expression fold change: 0.897
- TRIP13 expression fold change: 0.826
- TRMT2A expression fold change: 1.232
- TRNP1 expression fold change: 0.822
- TRNT1 expression fold change: 1.353
- TRUB2 expression fold change: 0.915
- TSEN2 Mean fold change: 1.417
- TSEN15 Mean fold change: 1.483
- TSPAN14 expression fold change: 1.164
- TSR2 expression fold change: 0.870
- TSSK6 Mean fold change: 1.615
- TTC9C expression fold change: 1.292
- TTC13 Mean fold change: 1.539
- TTC17 Mean fold change: 1.465
- TTLL4 expression fold change: 1.144
- TTRAP Mean fold change: 1.772
- TUBA1C expression fold change: 0.608
- TUBGCP4 expression fold change: 1.159
- TXNDC11 expression fold change: 0.839
- TXNRD2 expression fold change: 0.682
- UBAP2L expression fold change: 0.784
- UBAP2 expression fold change: 0.809
- UBE2CBP expression fold change: 1.206
- UBE2E3 expression fold change: 0.823
- UBE2F expression fold change: 1.199
- UBE3A expression fold change: 1.133
- UBL5 expression fold change: 0.749
- UBXN2B Mean fold change: 1.412
- UNC13D expression fold change: 0.656
- UPF1 expression fold change: 0.745
- UPP1 Mean fold change: 1.696
- USP3 expression fold change: 1.367
- USP13 expression fold change: 0.835
- USP43 expression fold change: 0.526
- USP45 expression fold change: 1.299
- VHL expression fold change: 1.356
- VPS4B expression fold change: 0.923
- VPS45 expression fold change: 1.169
- WARS Mean fold change: 4.515
- WBSCR16 expression fold change: 0.745
- WDFY1 expression fold change: 1.061
- WDR67 Mean fold change: 1.463
- WDR73 expression fold change: 1.398
- WDR85 Mean fold change: 1.430
- WDR86 Mean fold change: 1.956
- WI2-3658N16.1 Mean fold change: 2.029
- XBP1 Mean fold change: 1.642
- XPNPEP3 Mean fold change: 1.531
- XPO5 expression fold change: 1.247
- XPO7 expression fold change: 0.941
- XPOT Mean fold change: 2.053
- XRCC6BP1 expression fold change: 1.139
- YAP1 expression fold change: 1.104
- YARS Mean fold change: 1.734
- ZBED1 expression fold change: 0.668
- ZBED5 expression fold change: 1.276
- ZBTB8A expression fold change: 1.143
- ZBTB26 expression fold change: 1.398
- ZBTB34 expression fold change: 1.406
- ZC3H4 expression fold change: 0.785
- ZC3H7A expression fold change: 0.841
- ZC3H8 Mean fold change: 1.710
- ZC3H14 expression fold change: 1.133
- ZCCHC4 expression fold change: 1.276
- ZCCHC8 expression fold change: 1.219
- ZCCHC9 expression fold change: 1.340
- ZFAND1 Mean fold change: 1.472
- ZFP30 expression fold change: 1.219
- ZFP36L2 expression fold change: 1.274
- ZFP64 expression fold change: 1.227
- ZFP161 Mean fold change: 1.683
- ZFYVE20 expression fold change: 1.201
- ZFYVE27 expression fold change: 1.318
- ZHX2 Mean fold change: 1.409
- ZIC2 Mean fold change: 1.423
- ZNF12 expression fold change: 1.245
- ZNF25 Mean fold change: 1.879
- ZNF28 expression fold change: 1.179
- ZNF91 expression fold change: 1.253
- ZNF133 expression fold change: 1.224
- ZNF184 expression fold change: 1.308
- ZNF193 expression fold change: 1.323
- ZNF195 expression fold change: 1.289
- ZNF217 Mean fold change: 1.446
- ZNF239 Mean fold change: 1.543
- ZNF252 Mean fold change: 1.609
- ZNF295 Mean fold change: 1.482
- ZNF319 expression fold change: 1.386
- ZNF320 expression fold change: 1.362
- ZNF354A expression fold change: 1.350
- ZNF354B Mean fold change: 1.466
- ZNF410 Mean fold change: 1.435
- ZNF419 Mean fold change: 1.789
- ZNF433 Mean fold change: 1.676
- ZNF445 expression fold change: 1.297
- ZNF493 Mean fold change: 1.482
- ZNF500 expression fold change: 1.175
- ZNF547 expression fold change: 1.209
- ZNF554 expression fold change: 1.212
- ZNF558 Mean fold change: 1.502
- ZNF566 expression fold change: 1.349
- ZNF567 expression fold change: 1.133
- ZNF592 expression fold change: 1.148
- ZNF619 expression fold change: 1.402
- ZNF664 expression fold change: 1.294
- ZNF669 expression fold change: 1.198
- ZNF700 expression fold change: 1.242
- ZNF706 expression fold change: 1.373
- ZNF746 expression fold change: 1.115
- ZNF747 expression fold change: 1.143
- ZNF764 expression fold change: 1.241
- ZNF770 Mean fold change: 1.508
- ZNF780A expression fold change: 1.192
- ZNF780B expression fold change: 1.397
- ZNF800 expression fold change: 1.234
- ZRSR2 expression fold change: 1.249
- ZSCAN12 Mean fold change: 1.516
- ZSCAN30 Mean fold change: 1.472
- ZSWIM7 expression fold change: 1.339
- fold change in expression of gene APBB1: 0.456
- fold change in expression of gene C19orf21: 0.393
- fold change in expression of gene CACNG4: 0.431
- fold change in expression of gene CAV1: 0.418
- fold change in expression of gene CDKN2AIP: 0.467
- fold change in expression of gene CITED2: 0.434
- fold change in expression of gene COL9A3: 0.376
- fold change in expression of gene CRISPLD2: 0.367
- fold change in expression of gene CSDC2: 0.362
- fold change in expression of gene CTGF: 0.371
- fold change in expression of gene CYR61: 0.369
